Reference: ChEMBL document CHEMBL4706616, “Design, synthesis, and evaluation of substituted 2-acylamide-1,3-benzo[d]zole analogues as agents against MDR- and XDR-MTB” (Eur J Med Chem, 2021)
Converted amounts (≈) assume the structure as drawn.

Columns and labels:
[1] = test system: Mycobacterium tuberculosis; assay: Antitubercular activity against isoniazid/rifampicin multidrug-resistant Mycobacterium tuberculosis FJ05120 clinical isolates assessed as bacterial growth inhibition by MABA; type: functional
[2] = test system: Mycobacterium tuberculosis; assay: Antitubercular activity against isoniazid/rifampicin/streptomycin/capreomycin/ofloxacin extensively drug-resistant Mycobacterium tuberculosis FJ05195 clinical isolates assessed as bacterial growth inhibition by MABA; type: functional

SMILES	MIC [1]	MIC [2]
Cc1nnsc1C(=O)Nc1nc2cc(-c3ccccn3)ccc2o1	0.37 µM (≈ 0.125 µg/mL)	0.37 µM (≈ 0.125 µg/mL)
O=C(Nc1nc2ccccc2o1)c1ccc(Cl)s1	14.3 µM (≈ 4 µg/mL)	14.3 µM (≈ 4 µg/mL)
Cc1nnsc1C(=O)Nc1nc2c(ccc3cccnc32)o1	6.42 µM (≈ 2 µg/mL)	25.7 µM (≈ 8 µg/mL)
Cc1nnsc1C(=O)Nc1nc2c(OCc3ccccn3)cccc2o1	2.72 µM (≈ 0.999 µg/mL)	5.44 µM (≈ 2 µg/mL)
Cc1nnsc1C(=O)Nc1nc2ccccc2[nH]1	30.9 µM (≈ 8 µg/mL)	30.9 µM (≈ 8 µg/mL)
CC[C@@H](CO)NCCN[C@@H](CC)CO [ETHAMBUTOL]	4.89 µM (≈ 0.999 µg/mL)	39.2 µM (≈ 8 µg/mL)
Cc1nnsc1C(=O)Nc1nc2cc(-c3cnn(C)c3)ccc2o1	0.73 µM (≈ 0.248 µg/mL)	1.47 µM (≈ 0.5 µg/mL)
Cc1nnsc1C(=O)Nc1nc2ccccc2s1	57.9 µM (≈ 16 µg/mL)	57.9 µM (≈ 16 µg/mL)
Cc1nnsc1C(=O)Nc1nc2cc(Cl)ccc2o1	1.7 µM (≈ 0.501 µg/mL)	1.7 µM (≈ 0.501 µg/mL)
Cc1nnsc1C(=O)Nc1nc2cc(C(C)(C)C)ccc2o1	0.4 µM (≈ 0.127 µg/mL)	0.4 µM (≈ 0.127 µg/mL)
Cc1nnsc1C(=O)Nc1nc2c(Br)cccc2o1	0.74 µM (≈ 0.251 µg/mL)	0.74 µM (≈ 0.251 µg/mL)
Cc1nnsc1C(=O)Nc1nc2cc(N3CCOCC3)ccc2o1	23.2 µM (≈ 8 µg/mL)	23.2 µM (≈ 8 µg/mL)
COC(=O)c1ccc(-c2ccc3oc(NC(=O)c4snnc4C)nc3c2)cc1	0.63 µM (≈ 0.248 µg/mL)	0.63 µM (≈ 0.248 µg/mL)
Cc1nnsc1C(=O)Nc1nc2c(ccc3ncccc32)o1	25.7 µM (≈ 8 µg/mL)	25.7 µM (≈ 8 µg/mL)
Cc1ccc2oc(NC(=O)c3snnc3C)nc2c1	7.29 µM (≈ 2 µg/mL)	7.29 µM (≈ 2 µg/mL)
CO[C@H]1/C=C/O[C@@]2(C)Oc3c(C)c(O)c4c(O)c(c(/C=N/N5CCN(C)CC5)c(O)c4c3C2=O)NC(=O)/C(C)=C\C=C\[C@H](C)[C@H](O)[C@@H](C)[C@@H](O)[C@@H](C)[C@H](OC(C)=O)[C@@H]1C [RIFAMPIN]	> 311 µM	> 311 µM
Cc1nnsc1C(=O)Nc1nc2cc(F)ccc2o1	0.45 µM (≈ 0.125 µg/mL)	1.8 µM (≈ 0.501 µg/mL)

SMILES	MIC [1]	MIC [2]
Cc1nnsc1C(=O)Nc1nc2c(-c3ccccn3)cccc2o1	23.7 µM (≈ 8 µg/mL)	47.4 µM (≈ 16 µg/mL)
NNC(=O)c1ccncc1 [ISONIAZID]	7.29 µM (≈ 1 µg/mL)	29.2 µM (≈ 4 µg/mL)
Cc1nnsc1C(=O)Nc1nc2ncccc2o1	3.83 µM (≈ 1 µg/mL)	7.66 µM (≈ 2 µg/mL)
CN[C@@H]1[C@H](O[C@H]2[C@H](O[C@H]3[C@H](O)[C@@H](O)[C@H](N=C(N)N)[C@@H](O)[C@@H]3N=C(N)N)O[C@@H](C)[C@]2(O)C=O)O[C@@H](CO)[C@H](O)[C@H]1O [STREPTOMYCIN]	< 0.69 µM	87.8 µM (≈ 51.1 µg/mL)
Cc1nnsc1C(=O)Nc1nc2cc(-c3cccnc3)ccc2o1	1.48 µM (≈ 0.499 µg/mL)	2.96 µM (≈ 0.999 µg/mL)
Cc1nnsc1C(=O)Nc1nc2ccccc2o1	0.48 µM (≈ 0.125 µg/mL)	0.48 µM (≈ 0.125 µg/mL)
Cc1nnsc1C(=O)Nc1nc2c(Oc3ncccn3)cccc2o1	5.64 µM (≈ 2 µg/mL)	2.82 µM (≈ 0.999 µg/mL)
O=C(Nc1nc2ccccc2o1)c1ccco1	70.1 µM (≈ 16 µg/mL)	35.1 µM (≈ 8 µg/mL)
Cc1nnsc1C(=O)Nc1nc2ccc(C(C)(C)C)cc2o1	6.32 µM (≈ 2 µg/mL)	6.32 µM (≈ 2 µg/mL)
Cc1nnsc1C(=O)Nc1nc2cc(-c3ccncc3)ccc2o1	0.74 µM (≈ 0.25 µg/mL)	1.48 µM (≈ 0.499 µg/mL)
COC(=O)c1ccc2oc(NC(=O)c3snnc3C)nc2c1	1.57 µM (≈ 0.5 µg/mL)	3.14 µM (≈ 1 µg/mL)
O=C(Nc1nc2ccccc2o1)c1cccs1	32.8 µM (≈ 8 µg/mL)	32.8 µM (≈ 8 µg/mL)
Cc1nnsc1C(=O)Nc1nc2ccc(Cl)cc2o1	0.42 µM (≈ 0.124 µg/mL)	0.85 µM (≈ 0.251 µg/mL)
O=C(Nc1nc2ccccc2o1)c1ccccc1	537 µM (≈ 128 µg/mL)	537 µM (≈ 128 µg/mL)
Cc1nnsc1C(=O)Nc1nc2c(ccc3ccccc32)o1	103 µM (≈ 32 µg/mL)	103 µM (≈ 32 µg/mL)
Cc1nnsc1C(=O)Nc1nc2cc(Br)ccc2o1	1.47 µM (≈ 0.499 µg/mL)	1.47 µM (≈ 0.499 µg/mL)
